Test results published in ChEMBL document CHEMBL1157846, “Synthesis and theoretical studies on energetics of novel N- and O- perfluoroalkyl triazole tagged thienopyrimidines--their potential as adenosine receptor ligands” (Eur J Med Chem, 2010).

Columns and labels:
[1] = target: Adenosine receptor A2a (Rattus norvegicus, UniProt P30543)
Description: Displacement of [3H]MSX-2 from adenosine A2A receptor in rat brain striatal membrane after 30 mins by scintillation counting

[2] = target: T1, Adenosine receptor A1 (Rattus norvegicus, UniProt P25099)
T1 sequence (P25099 whole entry): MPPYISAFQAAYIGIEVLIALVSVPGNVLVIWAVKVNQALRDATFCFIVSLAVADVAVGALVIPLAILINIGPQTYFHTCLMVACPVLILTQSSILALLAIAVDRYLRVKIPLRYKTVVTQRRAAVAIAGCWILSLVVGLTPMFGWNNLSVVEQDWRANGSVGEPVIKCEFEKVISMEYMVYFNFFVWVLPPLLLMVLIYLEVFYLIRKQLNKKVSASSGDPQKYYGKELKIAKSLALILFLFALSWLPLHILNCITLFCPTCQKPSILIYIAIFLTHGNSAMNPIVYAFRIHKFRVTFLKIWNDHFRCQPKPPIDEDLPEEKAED
Description: Displacement of [3H]CCPA from adenosine A1 receptor in rat brain cortical membrane after 90 mins by scintillation counting

Chain of Adenosine receptor A2a (P30543 whole entry): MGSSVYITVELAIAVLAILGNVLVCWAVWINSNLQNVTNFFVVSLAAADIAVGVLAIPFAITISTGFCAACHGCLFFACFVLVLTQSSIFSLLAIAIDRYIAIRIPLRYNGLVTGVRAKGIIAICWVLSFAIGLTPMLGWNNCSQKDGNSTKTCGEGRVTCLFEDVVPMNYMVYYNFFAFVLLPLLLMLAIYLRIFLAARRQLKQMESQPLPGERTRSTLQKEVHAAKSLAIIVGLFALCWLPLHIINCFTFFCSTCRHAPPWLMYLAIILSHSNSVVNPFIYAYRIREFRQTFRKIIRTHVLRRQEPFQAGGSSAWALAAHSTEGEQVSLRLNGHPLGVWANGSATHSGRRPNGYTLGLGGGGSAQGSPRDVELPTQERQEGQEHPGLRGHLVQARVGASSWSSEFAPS

C#CCn1c(C)nc2sc3c(c2c1=O)CCCC3
Ki [1]: 7 nM

C#CCOc1nc(-c2ccccc2)nc2sc3c(c12)CCCC3
Ki [1]: 3 nM

C#CCn1c(-c2ccccc2)nc2sc3c(c2c1=O)CCC3
Ki [2]: 5 nM
Ki [1]: 9700 nM

C#CCn1c(Cc2ccc(F)cc2)nc2sc3c(c2c1=O)CCCC3
Ki [2]: 21 nM
Ki [1]: 14 nM

C#CCn1c(Cc2ccc(F)cc2)nc2sc(C)c(C)c2c1=O
Ki [2]: 4 nM
Ki [1]: 7620 nM

C#CCn1c(-c2ccccc2)nc2sc(C)c(C)c2c1=O
Ki [1]: 29 nM

C#CCn1c(C)nc2sc(C)c(C)c2c1=O
Ki [2]: 6 nM
Ki [1]: 3790 nM

C#CCn1c(C)nc2sc3c(c2c1=O)CCC3
Ki [2]: 6 nM
Ki [1]: 18 nM
